Experimental data published in patent US8637657B2, “Siderophore-mediated iron uptake in bacterial infection” (priority 2008, dated 2014).
“Also recorded” adds a separate entry of the source.

Experiments:
[1] = system: S. aureus SbnB mutant; type: cell-based; conditions: compound added to growth media
Experimental: (§1) Using SbnA and SbnB mutants in growth culture assays, compounds were added to the growth media and tested for the ability to overcome the iron-restricted phenotype.

[2] = system: S. aureus SbnA mutant; experiment: growth culture assay, compounds added to overcome iron-restricted growth defect of SbnA mutant; type: cell-based; conditions: compound added to growth media; data not shown
Experimental: as §1

[3] = system: wildtype S. aureus; experiment: disc growth assay with cell-free synthesized staphyloferrin A, wildtype; type: cell-based; conditions: paper disk on agar plate, 37° C. for 24 hours
Experimental: (§2) Growth radius was measured around the disc after incubation of plates at 37° C. for 24 hours.

[4] = system: SirA mutant; experiment: disc growth assay with cell-free synthesized staphyloferrin A, SirA mutant; type: cell-based, S. aureus; conditions: paper disk on agar plate, 37° C. for 24 hours
Experimental: as §2

[5] = system: Hts mutant; experiment: disc growth assay with cell-free synthesized staphyloferrin A, Hts mutant; type: cell-based, S. aureus; conditions: paper disk on agar plate, 37° C. for 24 hours
Experimental: as §2

[6] = system: HtsSir mutant; experiment: disc growth assay with cell-free synthesized staphyloferrin A, HtsSir mutant; type: cell-based, S. aureus; conditions: paper disk on agar plate, 37° C. for 24 hours
Experimental: as §2

[7] = target: T1, SbnE (Staphylococcus aureus, UniProt Q2G1M9); experiment: hydroxylamine trapping (hydroxamate formation) assay, SbnE; type: biochemical, S. aureus; conditions: 5 μM enzyme, 3 mM substrate
T1 construct: 6xHis; made in house; host or cells: E. coli BL21 (DE3)
Experimental: All reactions were performed in 300 μL volumes and the following were common to each reaction: 2.25 mM ATP, 15 mM MgCl2, 150 mM hydroxylamine, and 50 mM HEPES pH 7.4. […] The supernatant which now contains the citryl-Dae intermediate was incubated with fresh 5 μM SbnF or SbnC, 2.25 mM ATP, and 150 mM hydroxylamine. To assess the potential recognition of citryl-Dap as a substrate for SbnF or SbnC, this intermediate was formed as described above except that Dae was replaced with 50 mM Dap instead. For each reaction, a duplicate control reaction was prepared in which the enzyme was previously inactivated by heating at 100° C. for 10 minutes. All reactions described above were incubated at room temperature in the dark for 1 hour before addition of 300 μL stopping solution which consisted of 10% (w/v) FeCl3 and 3.3% (w/v) trichloroacetic acid in 0.7 M HCl. Reactions were centrifuged at 20 000×g for 5 minutes to remove precipitate and the formation of ferric hydroxamate was detected spectrophotometrically at 540 nm. Relative absorbance values reported in this study were calculated by subtracting the absorbance of the control (boiled enzyme) reactions from the absorbance of experimental reactions.
Essentially, this assay is used to monitor the specific activity of a synthetase towards a particular carboxylic acid.

[8] = target: T2, SbnF (Staphylococcus aureus, UniProt Q2G1M8); experiment: hydroxylamine trapping (hydroxamate formation) assay, SbnF; type: biochemical, S. aureus; conditions: 5 μM enzyme
T2 construct: 6xHis; made in house; host or cells: E. coli BL21 (DE3)
T2 sequence (Q2G1M8 25-616 limits assumed): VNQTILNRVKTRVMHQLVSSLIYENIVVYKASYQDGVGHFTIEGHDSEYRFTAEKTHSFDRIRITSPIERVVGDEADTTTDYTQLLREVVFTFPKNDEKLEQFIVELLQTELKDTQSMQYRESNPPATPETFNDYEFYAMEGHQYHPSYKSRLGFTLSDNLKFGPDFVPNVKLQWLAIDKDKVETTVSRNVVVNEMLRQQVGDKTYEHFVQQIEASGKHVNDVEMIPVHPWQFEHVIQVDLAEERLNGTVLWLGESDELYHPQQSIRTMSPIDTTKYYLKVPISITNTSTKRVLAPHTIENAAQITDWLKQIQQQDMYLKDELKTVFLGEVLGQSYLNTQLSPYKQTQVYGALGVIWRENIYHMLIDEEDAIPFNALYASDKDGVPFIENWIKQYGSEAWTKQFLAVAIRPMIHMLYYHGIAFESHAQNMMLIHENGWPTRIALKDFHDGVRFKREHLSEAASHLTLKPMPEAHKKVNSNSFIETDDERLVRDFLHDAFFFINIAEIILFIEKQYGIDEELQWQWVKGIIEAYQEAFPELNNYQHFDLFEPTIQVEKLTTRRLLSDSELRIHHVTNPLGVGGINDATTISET
Experimental: All reactions were performed in 300 μL volumes and the following were common to each reaction: 2.25 mM ATP, 15 mM MgCl2, 150 mM hydroxylamine, and 50 mM HEPES pH 7.4. […] Similarly, to assess which enzyme utilized α-KG as a substrate, 5 μM of SbnC, SbnE, or SbnF were incubated with 3 mM α-KG and the common reaction components. […] This reaction was then heat treated at 70° C. to deactivate SbnE and the reaction was then centrifuged at 14 500 rpm for 10 minutes to pellet precipitated enzyme. The supernatant which now contains the citryl-Dae intermediate was incubated with fresh 5 μM SbnF or SbnC, 2.25 mM ATP, and 150 mM hydroxylamine. To assess the potential recognition of citryl-Dap as a substrate for SbnF or SbnC, this intermediate was formed as described above except that Dae was replaced with 50 mM Dap instead. For each reaction, a duplicate control reaction was prepared in which the enzyme was previously inactivated by heating at 100° C. for 10 minutes. All reactions described above were incubated at room temperature in the dark for 1 hour before addition of 300 μL stopping solution which consisted of 10% (w/v) FeCl3 and 3.3% (w/v) trichloroacetic acid in 0.7 M HCl. Reactions were centrifuged at 20 000×g for 5 minutes to remove precipitate and the formation of ferric hydroxamate was detected spectrophotometrically at 540 nm. Relative absorbance values reported in this study were calculated by subtracting the absorbance of the control (boiled enzyme) reactions from the absorbance of experimental reactions.

[9] = system: HtsA; experiment: heme binding to purified HtsA (absorption spectra); set-up: species or system S. aureus; conditions: in comparison to IsdE
Excerpt: FIG. 10 illustrates the absorption spectra of purified IsdE, HtsA and SirA proteins in the absence of heme (A) and on exposure to heme (B);
In liquid growth assays, no attenuation of the htsABC deletion mutant, H1665, when grown on heme as a sole iron source (data not shown) was observed.

[10] = system: siderophore-deficient S. aureus (ΔsfaΔsbn); experiment: iron-starved growth of siderophore-deficient S. aureus with in vitro synthesized staphyloferrin B; type: cell-based; conditions: enzymatic reaction material from complete reactions, increasing amounts
Experimental: Bacteria were cultured for 12 hours in TMS broth then 12 hours in TMS broth containing 100 μM 2,2′-dipyridyl (Sigma-Aldrich). Cells were washed twice in saline, and diluted 1:100 into 60% horse serum (Sigma-Aldrich)—40% TMS broth. For iron-replete media, 50 μM FeCl3 was included. Cultures were grown under constant, medium amplitude shaking in a Bioscreen C machine (Growth Curves, USA). Optical density was measured at 600 nm every 30 min. However, for clarity of growth curve figures, data are shown only at 2-hour intervals.
This staphyloferrin B-dependent growth promotion was mediated by the ABC transporter SirABC (FIG. 14B), which is encoded by the sirABC operon divergently transcribed from the sbn operon (FIG. 13A).

[11] = target: T3, SbnC (Staphylococcus aureus, UniProt Q2G1N1); experiment: hydroxylamine trapping (hydroxamate formation) assay, SbnC; type: biochemical, S. aureus; conditions: 5 μM enzyme, 3 mM substrate
T3 construct: 6xHis; made in house; host or cells: E. coli BL21 (DE3)
T3 sequence (Q2G1N1 1-584): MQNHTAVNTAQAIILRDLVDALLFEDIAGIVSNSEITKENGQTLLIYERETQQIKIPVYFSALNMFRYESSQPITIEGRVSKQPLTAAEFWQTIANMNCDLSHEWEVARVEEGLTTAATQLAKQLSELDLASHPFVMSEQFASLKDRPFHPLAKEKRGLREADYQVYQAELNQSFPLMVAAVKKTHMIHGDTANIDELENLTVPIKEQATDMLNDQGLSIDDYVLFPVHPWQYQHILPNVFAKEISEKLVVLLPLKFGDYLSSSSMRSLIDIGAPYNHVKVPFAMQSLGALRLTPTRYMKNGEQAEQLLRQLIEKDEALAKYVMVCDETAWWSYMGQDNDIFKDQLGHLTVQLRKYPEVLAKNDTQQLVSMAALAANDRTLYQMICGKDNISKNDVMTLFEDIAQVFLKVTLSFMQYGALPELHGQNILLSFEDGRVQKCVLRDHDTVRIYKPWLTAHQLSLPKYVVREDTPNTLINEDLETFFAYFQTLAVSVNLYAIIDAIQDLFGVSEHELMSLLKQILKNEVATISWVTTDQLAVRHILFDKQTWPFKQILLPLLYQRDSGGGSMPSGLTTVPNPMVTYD
Experimental: To assess the potential recognition of citryl-Dap as a substrate for SbnF or SbnC, this intermediate was formed as described above except that Dae was replaced with 50 mM Dap instead. For each reaction, a duplicate control reaction was prepared in which the enzyme was previously inactivated by heating at 100° C. for 10 minutes. All reactions described above were incubated at room temperature in the dark for 1 hour before addition of 300 μL stopping solution which consisted of 10% (w/v) FeCl3 and 3.3% (w/v) trichloroacetic acid in 0.7 M HCl. Reactions were centrifuged at 20 000×g for 5 minutes to remove precipitate and the formation of ferric hydroxamate was detected spectrophotometrically at 540 nm. Relative absorbance values reported in this study were calculated by subtracting the absorbance of the control (boiled enzyme) reactions from the absorbance of experimental reactions.

[12] = chrome azurol S (CAS) assay of iron chelating / siderophore activity; conditions: SbnE reaction product
Excerpt: Strains of S. aureus containing complete sbn operon deletions (i.e. deleted for all of sbnA through sbnI genes) were constructed. In S. aureus Newman background, the sbn deletion strain was called H1331 whereas in RN6390 background, it was called H1324. […] Supplementation of serum growth media with iron obviated the growth defect of H1331 (FIG. 1, inset), and suppressed siderophore production in both Newman and H1331 (FIG. 2). […] To ensure that this was not due to a strain-specific phenomenon, all experiments described above were repeated using instead the RN6390 genetic background (i.e. RN6390 vs. H1324). Equivalent results were obtained (data not shown).
To measure levels of siderophore activity, chrome azurol S (CAS) shuttle solution was prepared as described. In the case of in vitro synthesized staphyloferrin B, 50 μL of the reaction mixture were removed and diluted in 450 μL of deionized water followed by 500 μL of CAS shuttle solution in a 1 ml spectrophotometer cuvette. The mixture was then incubated in the dark for 45 minutes. Siderophore quantification and absorbance readings were performed as described (Beasley et al., 2009).

[13] = system: S. aureus; experiment: promotion of iron-starved growth of S. aureus; type: cell-based; conditions: SbnE reaction product; data not shown
Experimental: Siderophore plate bioassays were performed as described (Beasley et al., 2009). Growth promotion, as measured by the diameter of the growth halo around each disk, was determined after 36 h incubation at 37° C.

T1 sequence (Q2G1M9 whole entry): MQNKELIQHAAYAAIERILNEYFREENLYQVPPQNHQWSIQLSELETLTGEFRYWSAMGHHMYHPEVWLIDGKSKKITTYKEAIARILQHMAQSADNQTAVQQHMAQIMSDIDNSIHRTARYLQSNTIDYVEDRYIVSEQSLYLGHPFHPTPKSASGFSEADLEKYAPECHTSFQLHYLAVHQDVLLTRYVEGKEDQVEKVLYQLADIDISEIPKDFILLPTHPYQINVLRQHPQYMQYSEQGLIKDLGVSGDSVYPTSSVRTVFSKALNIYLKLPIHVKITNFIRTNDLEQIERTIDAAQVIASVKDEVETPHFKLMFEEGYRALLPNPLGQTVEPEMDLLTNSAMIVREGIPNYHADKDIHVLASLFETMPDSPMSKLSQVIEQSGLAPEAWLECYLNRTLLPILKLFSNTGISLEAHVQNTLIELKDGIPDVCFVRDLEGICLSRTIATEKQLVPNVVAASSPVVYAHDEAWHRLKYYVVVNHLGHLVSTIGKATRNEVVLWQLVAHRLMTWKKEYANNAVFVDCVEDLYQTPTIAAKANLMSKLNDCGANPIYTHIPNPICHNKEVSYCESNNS

In the case of `NCC(N)C(=O)O` (stereo not drawn) [2,3-diamonpropionate, 2,3-diaminopropionate], the “overcoming the iron-restricted growth defect of the SbnB mutant” value [1] is reported as “can be overcome” and the “overcoming the iron-restricted growth defect of the SbnA mutant” value [2] is reported as “can be overcome”.

In the case of `O=C(O)CC(O)(CC(=O)NCCC[C@@H](NC(=O)CC(O)(CC(=O)O)C(=O)O)C(=O)O)C(=O)O` (stereo partly drawn) [Staphyloferrin A, staphyloferrin A], the “growth promotion of wildtype S. aureus” value [3] is reported as “promoted growth”, the “growth promotion of SirA mutant” value [4] is reported as “promoted growth” and the “growth promotion of Hts mutant” value [5] is reported as “did not promote growth”. For the same compound, the “growth promotion of HtsSir mutant” value [6] was “did not promote growth”.

For `O=C(O)CC(O)(CC(=O)O)C(=O)O` [citrate], the “activity of SbnE towards carboxylic acid substrate” value [7] was “high level of specific activity” and the “activity of SbnF towards carboxylic acid substrate” value [8] was “small level of activity”.

With `NCCNC(=O)CC(O)(CC(=O)O)C(=O)O` (stereo not drawn) [citryl-Dae] the “activity of SbnF towards carboxylic acid substrate” value [8] was “high levels of activity”.

For `C=CC1=C(C)c2cc3[n-]c(cc4[n-]c(cc5nc(cc1n2)C(C)=C5C=C)c(C)c4CCC(=O)O)c(CCC(=O)O)c3C.[Fe+2]` [heme], the “heme association with purified HtsA” value [9] was “little to no heme would associate”.

With `O=C(O)[C@@H]1CCCN1` [proline] the “overcoming the iron-restricted growth defect of the SbnB mutant” value [1] was “unable to overcome”.

In the case of `N[C@@H](CNC(=O)C[C@@](O)(CC(=O)NCCNC(=O)CCC(=O)C(=O)O)C(=O)O)C(=O)O` [staphyloferrin B], the “promotion of iron-starved growth of siderophore-deficient S. aureus (ΔsfaΔsbn)” value [10] is reported as “readily promote the iron-starved growth; also recorded: reaching levels comparable to growth in the presence of iron”.

In the case of `O=C(O)CCC(=O)C(=O)O` [α-KG, α-ketoglutarate], the “activity of SbnE towards carboxylic acid substrate” value [7] is reported as “not”, the “activity of SbnF towards carboxylic acid substrate” value [8] is reported as “not” and the “activity of SbnC towards carboxylic acid substrate” value [11] is reported as “activates”.

With `NC(CNC(=O)CC(O)(CC(=O)O)C(=O)O)C(=O)O` (stereo not drawn) [β-citryl-Dap intermediate] the “reaction with CAS reagent” value [12] was “reacted strongly”, the “promotion of iron-starved growth of S. aureus” value [13] was “unable to promote” and the “activity of SbnF towards carboxylic acid substrate” value [8] was “did not react”.
